Experimental data as given in article PMC6700428, “Purification and characterization of an isoflavones conjugate hydrolyzing β-glucosidase (ICHG) from Cyamopsis tetragonoloba (guar)” (Biochemistry and Biophysics Reports, 2019).

What was measured:
[1] = system: T1, Isoflavones conjugate hydrolyzing β-glucosidase (ICHG); assay: 4-nitrophenol release at […] nm, Lineweaver-Burk plot; format: biochemical, Cyamopsis tetragonoloba; settings: optimum pH 4.5 and 37 °C; citrate phosphate buffer 0.1 M; PNPG 0.1-5 mM
T1 construct: native, purified from dried seeds (ammonium sulphate, Sephadex G-75, DEAE-Sepharose); ~50 kDa subunit, ~150 kDa native, probable homotrimer; five internal peptides closest to Cicer arietinum beta-glucosidase

[2] = biological target: Isoflavones conjugate hydrolyzing β-glucosidase (ICHG) from Cyamopsis tetragonoloba (guar) (Cyamopsis tetragonoloba (guar)); assay: SEC; Sephadex G-75 column (1.8 x 50 cm), 0.02 M sodium phosphate buffer pH 6, standard proteins of 66 to 124 kDa; native mass (~150 kDa) compared with the subunit mass on SDS-PAGE (~50 kDa)

Row | Compound | Km [1] [µM] | stoichiometry N [2]
1 | O=[N+]([O-])c1ccc(O[C@@H]2O[C@H](CO)[C@@H](O)[C@H](O)[C@H]2O)cc1 [para nitrophenyl -β-D- glucopyranoside] | 860 | 
2 | Isoflavones conjugate hydrolyzing β-glucosidase (ICHG) from Cyamopsis tetragonoloba (guar) (enzyme) |  | 3
